The subject of experiment [1] is Tobacco mosaic virus. As to the kind of experiment: Inhibition of Tobacco mosaic virus (TMV) replication using Nicotiana tabacum cv. K326 at 0.2 mg/mL. The class given is functional.
In experiment [2] the test system is Tobacco mosaic virus. As to the kind of experiment: Inhibition of Tobacco mosaic virus (TMV) replication using Nicotiana tabacum cv. K326. The class given is functional, organism-based.

≈ marks a conversion by molar mass, not a printed value.

In turn, `COc1cc(/C=C/C(=O)OC[C@H]2O[C@@H](Oc3c(OC)cc([C@@H]4OC[C@@H]5[C@H]4CO[C@H]5c4cc(OC)c(O)c(OC)c4)cc3OC)[C@H](O)[C@@H](O)[C@@H]2OC(=O)/C=C/c2ccc(O)c(OC)c2)ccc1O` [SYRINGARESINOL-4'-O-[4',6'-O-(E)-DIFERULOYL]-BETA-D-GLUCOPYRANOSIDE] yielded an inhibition at 200 µg/mL with Tobacco mosaic virus [1] of 56.1%. The same compound registered an EC50 with Tobacco mosaic virus [2] of 180 µg/mL (≈ 193 µM).

In the experiment on Tobacco mosaic virus [1], `COc1cc(/C=C/C(=O)OC[C@H]2O[C@@H](Oc3ccc([C@@H]4OC[C@@H]5[C@H]4CO[C@H]5c4ccc(O)c(OC)c4)cc3OC)[C@H](O)[C@@H](OC(=O)/C=C/c3ccc(O)c(OC)c3)[C@@H]2O)ccc1O` [PINORESINOL-4'-O-[3',6'-O-(E)-DIFERULOYL]-BETA-D-GLUCOPYRANOSIDE] displayed an inhibition at 200 µg/mL of 47.7%. In the experiment on Tobacco mosaic virus [2], this compound yielded an EC50 of 240 µg/mL (≈ 275 µM).

Regarding `COc1cc(/C=C/C(=O)OC[C@H]2O[C@@H](Oc3ccc([C@@H]4OC[C@@H]5[C@H]4CO[C@H]5c4ccc(O)c(OC)c4)cc3OC)[C@H](O)[C@@H](O)[C@@H]2O)ccc1O` [PINORESINOL-4'-O-[6'-O-(E)-FERULOYL]-BETA-D-GLUCOPYRANOSIDE], at 200 µg/mL the inhibition in the experiment with Tobacco mosaic virus [1] was 34.3%.

`COc1cc(/C=C/C(=O)OC[C@H]2O[C@@H](Oc3ccc([C@@H]4OC[C@@H]5[C@H]4CO[C@H]5c4ccc(O)c(OC)c4)cc3OC)[C@H](O)[C@@H](O)[C@@H]2OC(=O)/C=C/c2ccc(O)c(OC)c2)ccc1O` [PINORESINOL-4'-O-[4',6'-O-(E)-DIFERULOYL]-BETA-D-GLUCOPYRANOSIDE] gave an inhibition at 200 µg/mL in the experiment on Tobacco mosaic virus [1] of 50.3%. Moreover, the midpoint of the response with Tobacco mosaic virus [2], the EC50, lay at 190 µg/mL (≈ 218 µM).

In general, inhibition refers to the share of the control response that was lost under treatment. What is called EC50 is the concentration that produces a half-maximal response. Low readings indicate a more potent agent, high ones a less potent agent.

The values are drawn from ChEMBL document CHEMBL3044955, “Inhibitory activity against tobacco mosaic virus (TMV) replication of pinoresinol and syringaresinol lignans and their glycosides from the root of Rhus javanica var. roxburghiana” (J Agric Food Chem, 2007).
